Experimental data from US9943519B2, “Pharmaceutical compounds” (F.HOFFMANN-LA ROCHE AG, priority 2006, dated 2018).

Experiments:
[1] = target: human PI3K isoform beta (p110 beta) (Homo sapiens, UniProt P42338); test: p110 isoform selectivity scintillation proximity assay (beta); format: biochemical; settings: ratio of IC50 values, SPA, purified human PI3K isoforms
Protocol: (§1) Binding of compounds of the invention from above Tables 1a and 1b to purified preparations of p110 isoforms alpha, beta, delta, and gamma was measured by a Scintillation Proximity Assay (SPA) to determine binding activity (IC50 μMol) and selectivity of binding of beta, delta, and gamma isoforms relative to alpha (Example 8). These values are expressed in Table 2.
(§2) The ability of representative compounds from Tables 1a and 1b to inhibit the lipid kinase activity of purified preparations of human PI3K isoforms alpha, beta, delta, and gamma was determined by a radiometric scintillation proximity assay (SPA, GE Healthcare, Amersham Biosciences). Concentration dependent inhibition at 50% (IC50 μMol) was determined for all four isoforms […] and fold potency over beta, delta, and gamma relative to alpha was calculated for a selection of compounds in Table 2. Each compound has a p110 alpha IC50<1 μMol.

[2] = target: human PI3K isoform gamma (p110 gamma) (Homo sapiens, UniProt P48736); test: p110 isoform selectivity scintillation proximity assay (gamma); format: biochemical; settings: ratio of IC50 values, SPA, purified human PI3K isoforms
human PI3K isoform gamma (p110 gamma), sequence (P48736 whole entry, canonical isoform): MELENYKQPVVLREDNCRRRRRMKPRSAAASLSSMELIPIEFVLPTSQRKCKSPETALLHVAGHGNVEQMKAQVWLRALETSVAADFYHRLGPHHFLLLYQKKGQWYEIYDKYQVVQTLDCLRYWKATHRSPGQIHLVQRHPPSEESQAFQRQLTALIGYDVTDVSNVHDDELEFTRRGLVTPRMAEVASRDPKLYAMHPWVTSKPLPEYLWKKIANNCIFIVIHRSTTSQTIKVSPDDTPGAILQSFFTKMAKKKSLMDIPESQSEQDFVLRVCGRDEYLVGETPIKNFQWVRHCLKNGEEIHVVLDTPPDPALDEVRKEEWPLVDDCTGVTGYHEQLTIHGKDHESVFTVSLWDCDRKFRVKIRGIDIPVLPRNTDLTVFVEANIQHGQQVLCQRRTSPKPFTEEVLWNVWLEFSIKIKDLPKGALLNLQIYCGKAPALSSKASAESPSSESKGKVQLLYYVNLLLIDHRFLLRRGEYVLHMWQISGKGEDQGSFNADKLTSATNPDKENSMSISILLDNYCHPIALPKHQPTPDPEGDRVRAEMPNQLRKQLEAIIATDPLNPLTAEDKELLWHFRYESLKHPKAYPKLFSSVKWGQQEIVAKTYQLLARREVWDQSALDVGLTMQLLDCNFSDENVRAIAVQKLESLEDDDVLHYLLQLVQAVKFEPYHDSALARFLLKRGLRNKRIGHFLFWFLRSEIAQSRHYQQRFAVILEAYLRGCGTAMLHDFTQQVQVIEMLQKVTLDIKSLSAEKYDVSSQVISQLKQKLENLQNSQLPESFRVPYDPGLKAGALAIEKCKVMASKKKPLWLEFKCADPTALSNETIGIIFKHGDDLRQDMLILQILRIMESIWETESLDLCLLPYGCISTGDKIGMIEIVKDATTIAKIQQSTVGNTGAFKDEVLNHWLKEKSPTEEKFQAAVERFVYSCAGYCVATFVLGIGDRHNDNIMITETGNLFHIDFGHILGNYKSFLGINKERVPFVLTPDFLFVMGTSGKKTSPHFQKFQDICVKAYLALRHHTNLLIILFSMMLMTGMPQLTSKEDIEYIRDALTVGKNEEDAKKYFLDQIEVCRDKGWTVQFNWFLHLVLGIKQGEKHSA
Protocol: as §1, §2

[3] = target: human PI3K isoform delta (p110 delta) (Homo sapiens, UniProt O00329); test: p110 isoform selectivity scintillation proximity assay (delta); format: biochemical; settings: ratio of IC50 values, SPA, purified human PI3K isoforms
human PI3K isoform delta (p110 delta), sequence (O00329 whole entry, canonical isoform): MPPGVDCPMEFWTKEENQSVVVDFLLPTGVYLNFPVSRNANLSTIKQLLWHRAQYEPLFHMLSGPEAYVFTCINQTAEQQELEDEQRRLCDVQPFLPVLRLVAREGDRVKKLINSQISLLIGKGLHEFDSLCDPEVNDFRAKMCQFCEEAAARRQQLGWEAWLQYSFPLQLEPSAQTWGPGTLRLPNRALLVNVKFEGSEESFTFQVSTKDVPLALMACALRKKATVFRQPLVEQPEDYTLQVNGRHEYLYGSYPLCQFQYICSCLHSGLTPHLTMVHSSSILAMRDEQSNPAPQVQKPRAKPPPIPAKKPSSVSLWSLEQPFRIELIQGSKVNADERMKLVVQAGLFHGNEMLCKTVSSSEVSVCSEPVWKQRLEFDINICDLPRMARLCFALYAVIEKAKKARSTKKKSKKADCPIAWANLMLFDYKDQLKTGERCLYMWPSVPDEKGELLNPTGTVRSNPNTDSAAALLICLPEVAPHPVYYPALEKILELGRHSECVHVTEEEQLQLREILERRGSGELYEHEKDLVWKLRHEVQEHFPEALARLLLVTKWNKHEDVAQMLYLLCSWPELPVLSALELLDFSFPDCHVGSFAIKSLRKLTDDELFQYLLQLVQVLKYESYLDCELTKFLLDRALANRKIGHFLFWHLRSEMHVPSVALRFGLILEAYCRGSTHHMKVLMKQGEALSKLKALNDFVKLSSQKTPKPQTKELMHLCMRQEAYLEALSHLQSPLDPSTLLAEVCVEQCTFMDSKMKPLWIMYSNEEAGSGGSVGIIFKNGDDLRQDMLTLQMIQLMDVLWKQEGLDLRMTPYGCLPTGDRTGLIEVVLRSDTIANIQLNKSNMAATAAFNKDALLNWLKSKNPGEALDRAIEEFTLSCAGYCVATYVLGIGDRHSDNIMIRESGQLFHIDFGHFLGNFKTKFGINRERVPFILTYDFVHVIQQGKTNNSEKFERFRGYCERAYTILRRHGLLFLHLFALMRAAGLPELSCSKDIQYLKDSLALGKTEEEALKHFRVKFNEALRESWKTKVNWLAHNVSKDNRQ
human PI3K isoform delta (p110 delta), sequence (P27986 whole entry partner, canonical isoform): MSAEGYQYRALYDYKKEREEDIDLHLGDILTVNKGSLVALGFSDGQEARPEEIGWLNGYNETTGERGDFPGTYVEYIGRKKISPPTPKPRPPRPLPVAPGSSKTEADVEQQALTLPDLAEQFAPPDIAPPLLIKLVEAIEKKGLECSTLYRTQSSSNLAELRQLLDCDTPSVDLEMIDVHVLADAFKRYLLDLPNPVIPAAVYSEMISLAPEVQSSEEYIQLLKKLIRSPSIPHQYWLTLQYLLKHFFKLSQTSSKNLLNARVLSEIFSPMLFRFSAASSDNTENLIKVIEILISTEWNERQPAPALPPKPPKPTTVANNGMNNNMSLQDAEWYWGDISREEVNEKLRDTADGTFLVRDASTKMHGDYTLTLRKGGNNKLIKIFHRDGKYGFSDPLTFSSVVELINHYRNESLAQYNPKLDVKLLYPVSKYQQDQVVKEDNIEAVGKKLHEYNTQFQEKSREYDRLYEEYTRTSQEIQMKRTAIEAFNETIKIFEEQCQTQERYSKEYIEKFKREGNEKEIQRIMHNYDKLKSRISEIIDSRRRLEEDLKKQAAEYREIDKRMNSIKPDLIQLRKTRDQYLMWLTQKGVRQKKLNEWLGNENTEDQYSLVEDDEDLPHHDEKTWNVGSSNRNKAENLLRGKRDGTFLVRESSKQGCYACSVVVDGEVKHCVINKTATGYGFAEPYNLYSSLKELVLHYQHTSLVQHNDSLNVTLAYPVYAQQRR
Protocol: as §1, §2

Caco-2 cells = test: Caco-2 permeability; format: in vitro ADME; settings: bidirectional Caco-2 assay
Protocol: Caco-2 cells were seeded onto Millipore Multiscreen plates at 1×10^5 cells/cm^2, and were cultured for 20 days. Assessment of compound permeability was subsequently conducted. The compounds were applied to the apical surface (A) of cell monolayers and compound permeation into the basolateral (B) compartment was measured. This was performed in the reverse direction (B−A) to investigate active transport. A permeability coefficient value, Papp, for each compound, a measure of the rate of permeation of the compound across the membrane, was calculated. Compounds were grouped into low (Papp</=[…]) or high (Papp>/=[…]) absorption potential based on comparison with control compounds with established human absorption.
For assessment of a compound's ability to undergo active efflux, the ratio of basolateral (B) to apical (A) transport compared with A to B was determined. Values of B−A/A−B>/=1.0 indicated the occurrence of active cellular efflux. All of the compounds tested through the Caco-2 permeability screen had Papp values >/=[…].

human PI3K isoform beta (p110 beta), sequence (P42338 whole entry, canonical isoform): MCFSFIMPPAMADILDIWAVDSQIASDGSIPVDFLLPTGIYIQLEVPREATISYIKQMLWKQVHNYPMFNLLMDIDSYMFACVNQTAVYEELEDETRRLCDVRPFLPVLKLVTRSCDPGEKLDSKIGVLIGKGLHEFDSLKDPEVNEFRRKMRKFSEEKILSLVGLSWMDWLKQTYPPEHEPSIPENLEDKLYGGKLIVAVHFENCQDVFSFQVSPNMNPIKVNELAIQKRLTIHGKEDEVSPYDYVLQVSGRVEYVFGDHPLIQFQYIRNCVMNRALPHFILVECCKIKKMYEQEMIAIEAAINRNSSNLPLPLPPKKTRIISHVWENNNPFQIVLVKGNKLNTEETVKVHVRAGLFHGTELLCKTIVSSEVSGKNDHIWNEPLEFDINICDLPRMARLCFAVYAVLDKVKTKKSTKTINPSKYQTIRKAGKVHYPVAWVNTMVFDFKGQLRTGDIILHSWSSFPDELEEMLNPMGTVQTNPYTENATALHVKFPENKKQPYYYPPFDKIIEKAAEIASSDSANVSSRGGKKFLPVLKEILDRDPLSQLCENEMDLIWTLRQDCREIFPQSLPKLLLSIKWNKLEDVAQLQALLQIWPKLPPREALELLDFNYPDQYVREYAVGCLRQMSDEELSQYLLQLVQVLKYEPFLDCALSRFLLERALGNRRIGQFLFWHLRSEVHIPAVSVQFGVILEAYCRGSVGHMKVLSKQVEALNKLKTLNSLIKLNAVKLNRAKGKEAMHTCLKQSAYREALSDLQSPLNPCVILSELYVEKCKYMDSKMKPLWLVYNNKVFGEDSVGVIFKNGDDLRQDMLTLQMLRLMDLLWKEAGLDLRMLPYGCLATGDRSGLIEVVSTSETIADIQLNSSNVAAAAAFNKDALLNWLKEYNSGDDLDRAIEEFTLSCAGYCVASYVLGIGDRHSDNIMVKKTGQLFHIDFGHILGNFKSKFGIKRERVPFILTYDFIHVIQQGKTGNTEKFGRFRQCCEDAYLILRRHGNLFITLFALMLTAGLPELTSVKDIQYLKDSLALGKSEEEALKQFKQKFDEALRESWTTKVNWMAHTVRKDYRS
human PI3K isoform beta (p110 beta), sequence (P27986 whole entry partner, canonical isoform): as the sequence (P27986 whole entry partner, canonical isoform) above

SMILES	alpha/beta (fold potency over beta relative to alpha) [1]	alpha/gamma (fold potency over gamma relative to alpha) [2]	alpha/delta (fold potency over delta relative to alpha) [3]	B−A/A−B asymmetry index (Caco-2 cells)
CS(=O)(=O)N1CCN(Cc2cc3nc(-c4cncc5ccccc45)nc(N4CCOCC4)c3s2)CC1 [Compound 90, 4-[6-(4-Methanesulfonyl-piperazin-1-ylmethyl)-4-morpholin-4-yl-thieno[3,2-d]pyrimidin-2-yl]-isoquinoline]	>10 fold	>10 fold	<10 fold	–
CS(=O)(=O)N1CCN(Cc2cc3c(N4CCOCC4)nc(-c4cncc5ccccc45)nc3s2)CC1 [Compound 94, 4-[6-(4-Methanesulfonyl-piperazin-1-ylmethyl)-4-morpholin-4-yl-thieno[2,3-d]pyrimidin-2-yl]-isoquinoline]	>10 fold	>10 fold	<10 fold	–
CS(=O)(=O)N1CCN(Cc2cc3c(N4CCOCC4)nc(-c4cnc5ccccc5c4)nc3s2)CC1 [Compound 95, 3-[6-(4-Methanesulfonyl-piperazin-1-ylmethyl)-4-morpholin-4-yl-thieno[2,3-d]pyrimidin-2-yl]-quinoline]	>10 fold	>10 fold	>10 fold	–
CS(=O)(=O)N1CCN(Cc2cc3nc(-c4cnc5[nH]ccc5c4)nc(N4CCOCC4)c3s2)CC1 [Compound 133, 6-((4-methylsulfonylpiperazin-1-yl)methyl)-4-morpholino-2-(1H-pyrrolo[2,3-b]pyridin-5-yl)thieno[3,2-d]pyrimidine]	>10 fold	>10 fold	<10 fold	–
CS(=O)(=O)N1CCN(Cc2cc3nc(-c4cccc5[nH]cnc45)nc(N4CCOCC4)c3s2)CC1 [Compound 139]	<10 fold	<10 fold	<10 fold	–
CS(=O)(=O)N1CCN(Cc2cc3c(N4CCOCC4)nc(-c4cnc5[nH]ccc5c4)nc3s2)CC1 [Compound 140]	>10 fold	>10 fold	>10 fold	–
CS(=O)(=O)N1CCN(Cc2cc3c(N4CCOCC4)nc(-c4cccc5[nH]ncc45)nc3o2)CC1 [Compound 141, 2-(1H-indazol-4-yl)-6-((4-methylsulfonylpiperazin-1-yl)methyl)-4-morpholinofuro[2,3-d]pyrimidine]	<10 fold	>10 fold	<10 fold	–
CS(=O)(=O)N1CCN(Cc2cc3nc(-c4cnc5[nH]ccc5c4)nc(N4CCOCC4)c3o2)CC1 [Compound 142]	>10 fold	>10 fold	<10 fold	–
CS(=O)(=O)N1CCN(Cc2cc3nc(-c4cnc5[nH]cnc5c4)nc(N4CCOCC4)c3s2)CC1 [Compound 144]	<10 fold	>10 fold	<10 fold	–
CS(=O)(=O)N1CCN(Cc2cc3c(N4CCOCC4)nc(-c4cnc5[nH]cnc5c4)nc3s2)CC1 [Compound 147]	>10 fold	>10 fold	>10 fold	–
Cc1nc2cc(-c3nc(N4CCOCC4)c4sc(CN5CCN(S(C)(=O)=O)CC5)cc4n3)ccc2[nH]1 [Compound 157, 6-(4-Methanesulfonyl-piperazin-1-ylmethyl)-2-(2-methyl-1H-benzoimidazol-5-yl)-4-morpholin-4-yl-thieno[3,2-d]pyrimidine]	>10 fold	>10 fold	<10 fold	–
CN1CCN(Cc2cc3nc(-c4cccc(O)c4)nc(N4CCOCC4)c3s2)CC1 [PI540]	–	–	–	less than 1.0
